Source: patent US20140363386A1, “DUALISTIC MOLECULES HAVING UV RADIATION FILTRATING ABILITY AT WIDE SPECTRUM AND POTENT DAMPING ACTIVITY OF THE REACTIVITY OF FREE RADICALS (RADICAL SCAVENGING)” (UNIVERSITA DEGLI STUDI FERRARA, priority 2012, published 2014)

What was measured:
[1] = FRAP (Ferric Reducing/Antioxidant Power) test; type: biochemical; conditions: anti-oxidant activity, Trolox equivalents; acid conditions, TPTZ
Description: (§1) The compound object of the present invention was tested through different in vitro tests that complement one another, in order to evaluate its ability to counteract different radical species.
(§2) In particular, the DPPH test, based on the measurement of the reducing activity of anti-oxidant molecules against the radical DPPH (2,2-diphenyl-1-picrylhydrazyl), the FRAP (Ferric Reducing/Antioxidant Power) test, which measures the ability of an anti-oxidant to reduce the Fe^3+ ions to Fe^2+ ions in acid conditions and in the presence of TPTZ (2,4,6-tripyridyl-triazine) and PCL (Photochemiluminescence) analysis, which allows measurement of the inhibition by the anti-oxidants of photo-induced auto-oxidation of the luminol promoted by the superoxide anion, were used.
(§3) In table 1, in which the values are expressed in μmol Trolox/mmol compound, some examples are given.

[2] = DPPH test: reducing activity of anti-oxidant molecules against the radical DPPH; type: biochemical; conditions: Trolox equivalents
Description: as §1, §2, §3

[3] = in vitro spectrophotometric determination of solar protection parameters of standard formulations (Diffey and Robson); conditions: standard formulation containing the compound at 3%
Text: Determining the UVA/UVB ratio is a parameter that is mostly independent from the SPF value that provides a clear indication of the protective power of the solar product against UVA rays. According to the Boots scale, when the value of such a ratio is comprised between 0.6 and 0.8 the product offers a high UVA protection, when the value is greater than 0.8 the UVA protection is considered to be its maximum.
The critical λ is an important instrumental parameter for evaluating the protective power of the solar product against UVA rays: when the critical λ is greater than 370 nm the product offers protection over a wide spectrum.
Determining the solar protection parameters was carried out through in vitro tests that foresee the use of spectrophotometric techniques, according to the international protocol Diffey and Robson (B. L. Diffey, J. Robson, J. Soc. Cosm. Chem., 1989, 40: 127-133).
As well as 2-phenyl-1H-benzimidazole-5-sulfonic acid, as reference product with which to compare the data a commercial filter (Neo Heliopan® AP) was also used, known to be a water-soluble exclusively UVA filter with critical λ greater than 370 nm. The results of some standard formulations containing a compound according to the present invention are given as an example in table 3.
(§4) Standard Formulation 3% Prepared at pH 7.2-7.6

[4] = maximum wavelength absorbable (λ max), UV absorption; type: physicochemical; conditions: for λ max: pH between 7.4 and 8 in a phosphate buffer
Description: Moreover, the compound object of the present invention recorded a significant increase in the maximum wavelength absorbable (λ max) with respect to 2-phenyl-1H-benzimidazole-5-sulfonic acid, which has been taken as reference.
Some examples are given in table 2, in which the λ max were measured at pH comprised between 7.4 and 8 in a phosphate buffer.
In 5 ml of ethanol 100 mg of 3,4-diamine-benzenesulfonic acid sulfate salt (0.35 mmol), 48 mg of 3,4 dihydroxybenzaldehyde (0.35 mmol) and 0.7 ml of sodium bisulfite solution 1N (0.7 mmol) were mixed. The reaction mixture was placed at 80° C. for 24 hours. After having evaporated the solvents, the raw product was treated with 5 ml of solution 5M of HCl. The precipitate was then filtered and the product recrystallized from methanol.

[5] = PCL analysis of anti-oxidant activity of standard formulations; type: biochemical; conditions: standard formulation containing the compound at 3%
Text: as §2
We then proceeded to measure the anti-oxidant activity through PCL analysis of the standard formulations containing a compound according to the present invention at the concentration of 3%. Such an anti-oxidant activity was measured in order to compare it with the reference molecules.
as §4

[6] = PCL (Photochemiluminescence) analysis of the compounds; type: biochemical; conditions: anti-oxidant activity, Trolox equivalents; photo-induced auto-oxidation of luminol
Description: as §1, §2, §3

[7] = known property of the commercial filter; cited from earlier work

| Structure (SMILES) | λ max [4] | maximum absorption in the UV region ([4]; product of Example 1, medium not stated) | FRAP [1] | DPPH [2] | SPF [3] | UVA/UVB (ratio between UVA absorbance and UVB absorbance) [3] | λ critical [3] | anti-oxidant activity through PCL analysis [5] | PCL [6] | critical λ [7] |
| --- | --- | --- | --- | --- | --- | --- | --- | --- | --- | --- |
| Oc1ccc(-c2nc3ccccc3[nH]2)c(O)c1 [2-(2,4-Dihydroxy-phenyl)-1H-benzimidazole] | 315.5 nm |  | 37.3 ± 0.3 μmol Trolox/mmol compound | 16.5 ± 0.5 μmol Trolox/mmol compound | 4.85 ± 0.71 | 1.31 ± 0.04 | 379.5 nm | 8.66 ± 0.04 μmol Trolox/g cosmetic formulation | 198 ± 3 μmol Trolox/mmol compound |  |
| O=S(=O)(O)c1ccc2[nH]c(-c3ccccc3)nc2c1 [2-phenyl-1H-benzimidazole-5-sulfonic acid, reference compound] | 302.5 nm |  | 0.79 ± 0.05 μmol Trolox/mmol compound | 4.40 ± 0.03 μmol Trolox/mmol compound | 6.33 ± 1.24 | 0.31 ± 0.06 | 333 nm | 0 μmol Trolox/g cosmetic formulation | <0 μmol Trolox/mmol compound |  |
| O=S(=O)([O-])c1cc(S(=O)(=O)O)cc2[nH]c(-c3ccc(-c4nc5c(S(=O)(=O)[O-])cc(S(=O)(=O)O)cc5[nH]4)cc3)nc12.[Na+].[Na+] [Neo Heliopan ® AP, reference compound] |  |  |  |  | 4.59 ± 0.37 | 2.46 ± 0.12 | 371 nm | 0 μmol Trolox/g cosmetic formulation |  | greater than 370 nm |

More lines, main results first:

| λ max [4] | maximum absorption in the UV region ([4]; product of Example 1, medium not stated) | Structure (SMILES) | FRAP [1] | DPPH [2] | SPF [3] | UVA/UVB (ratio between UVA absorbance and UVB absorbance) [3] | λ critical [3] | anti-oxidant activity through PCL analysis [5] | PCL [6] | critical λ [7] |
| --- | --- | --- | --- | --- | --- | --- | --- | --- | --- | --- |
| 321.5 nm |  | O=C(O)c1ccc2[nH]c(-c3ccc(O)cc3O)nc2c1 [2-(2,4-Dihydroxy-phenyl)-1H-benzoimidazole-5-carboxylic acid] | 31.6 ± 1.7 μmol Trolox/mmol compound | 32.2 ± 2.1 μmol Trolox/mmol compound | 4.70 ± 0.62 | 1.48 ± 0.03 | 369.5 nm | 4.97 ± 0.17 μmol Trolox/g cosmetic formulation | 160 ± 4 μmol Trolox/mmol compound |  |
| 311 nm |  | Oc1ccc(-c2nc3ccccc3[nH]2)cc1O [2-(3,4-Dihydroxy-phenyl)-1H-benzimidazole] | 2523 ± 29 μmol Trolox/mmol compound | 1975 ± 15 μmol Trolox/mmol compound | 7.07 ± 1.36 | 0.93 ± 0.02 | 367.5 nm | 760 ± 5 μmol Trolox/g cosmetic formulation | 27442 ± 329 μmol Trolox/mmol compound |  |
| 317 nm |  | O=C(O)c1ccc2[nH]c(-c3ccc(O)c(O)c3)nc2c1 [2-(3,4-Dihydroxy-phenyl)-1H-benzoimidazole-5-carboxylic acid] | 1803 ± 22 μmol Trolox/mmol compound | 1772 ± 75 μmol Trolox/mmol compound | 9.82 ± 1.30 | 1.21 ± 0.04 | 369.5 nm | 383 ± 18 μmol Trolox/g cosmetic formulation | 22014 ± 360 μmol Trolox/mmol compound |  |
| 313.5 nm | 313 nm | O=S(=O)(O)c1ccc2[nH]c(-c3ccc(O)c(O)c3)nc2c1 [2-(3,4-dihydroxy-phenyl)-1H-benzoimidazole-5-sulfonic acid] | 2313 ± 26 μmol Trolox/mmol compound | 2145 ± 40 μmol Trolox/mmol compound | 13.36 ± 2.20 | 0.88 ± 0.04 | 358.5 nm | 725 ± 3 μmol Trolox/g cosmetic formulation | 27855 ± 764 μmol Trolox/mmol compound |  |
| 312.5 nm |  | O=C(O)c1ccc2[nH]c(-c3ccc(O)cc3)nc2c1 [2-(4-Hydroxy-phenyl)-1H-benzoimidazole-5-carboxylic acid] | 2.62 ± 0.06 μmol Trolox/mmol compound | 1.19 ± 0.02 μmol Trolox/mmol compound | 8.42 ± 1.55 | 0.89 ± 0.05 | 350 nm | 0.16 ± 0.02 μmol Trolox/g cosmetic formulation | 7 ± 0.3 μmol Trolox/mmol compound |  |
